Laboratory results published in publication PMC7473772 (eLife, 2020).
Values joined by “and” are separate entries in the source; they are usually repeats but may differ in a detail not shown here. Equal entries are not always repeated. Structures can show the parent of a compound that is named as a salt. Where two headings read alike, the source gives them in different places. Marks after values point to notes of the source that are not given here.

Assays:
[1] = molecular target: TbAQP2/HAPT1 (Trypanosoma brucei brucei, UniProt Q6ZXT3); experiment: cell-based; type: cell-based
TbAQP2/HAPT1, sequence (Q6ZXT3 whole entry): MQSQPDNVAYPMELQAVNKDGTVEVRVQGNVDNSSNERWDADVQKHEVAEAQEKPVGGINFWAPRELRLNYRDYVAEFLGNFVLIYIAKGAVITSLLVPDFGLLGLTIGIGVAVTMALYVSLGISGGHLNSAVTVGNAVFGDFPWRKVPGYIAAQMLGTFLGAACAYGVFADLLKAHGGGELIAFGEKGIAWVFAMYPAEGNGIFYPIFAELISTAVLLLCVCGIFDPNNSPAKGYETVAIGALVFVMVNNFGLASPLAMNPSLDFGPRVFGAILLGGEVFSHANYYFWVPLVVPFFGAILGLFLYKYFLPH

[2] = tested on: T. b. brucei 2T1; experiment: Drug sensitivity assay (resazurin); type: cell-based; details: Trypanosoma brucei, 48 h drug + 24 h resazurin, read-out: EC50 control 2T1 AVG
Method: The tbaqp2/tbaqp3 null cells ([Baker et al., 2012]) and tbaqp1-2-3 null cells ([Jeacock et al., 2017]) (both obtained from David Horn, University of Dundee, UK) are derived from the 2T1 strain of T. b. brucei ([Alsford and Horn, 2008]). The CRK12 RNAi cell line^28 was obtained from Dr Tansy Hammarton (University of Glasgow, UK) and is also based on the 2T1 cell line; RNAi expression was induced with 1 µg/ml tetracycline in the medium. All experiments were performed with bloodstream form trypanosomes grown in vitro in HMI-11 medium as described ([Wallace et al., 2002]) at 37°C in a 5% CO2 atmosphere. Cultures were routinely maintained in 10 ml of this medium, being seeded at 5 × 10^4 cells/ml and passed to fresh medium at reaching approximately 3 × 10^6 cells/ml after 48 hr. For transport experiments 150 or 200 ml of culture was seeded at the same density in large flasks and incubated until the culture reached late-log phase.
Drug sensitivity assays for T. b. brucei bloodstream forms used the cell viability dye resazurin (Sigma) and were performed exactly as described ([Wallace et al., 2002]; [Bridges et al., 2007]) in 96-well plates with doubling dilutions of test compound, starting at 100 µM, over 2 rows of the plate (23 dilutions plus no-drug control). Incubation time with test compound was 48 hr (37°C/5% CO2), followed by an additional 24 hr in the presence of the dye.

[3] = tested on: tbaqp2 null (AQP2-KO); experiment: Drug sensitivity assay (resazurin); type: cell-based; details: Trypanosoma brucei, read-out: EC50 AQP2-KO AVG, AQP2-KO / tbaqp2 null; 48 h drug + 24 h resazurin
[4] = tested on: s427WT bloodstream forms; type: cell-based, Trypanosoma brucei brucei; details: for Inhibition of pentamidine transport: after preincubation; for 3H-penta: CCCP 20, gramicidin 10, Nigericin 20, NEM 1000
[5] = tested on: T. b. brucei s427WT cells; type: cell-based, Trypanosoma brucei brucei
[6] = tested on: T. b. brucei s427 WT (bloodstream forms); type: cell-based, Trypanosoma brucei brucei
[7] = tested on: CRK12 RNAi cells; experiment: [3H]-suramin uptake after CRK12 RNAi induction (endocytosis defect); type: cell-based, Trypanosoma brucei
[8] = 25 nM [3H]-pentamidine, 1 mM adenosine, 3 min pre-incubation
[9] = CCCP 20, gramicidin 10, Nigericin 20, NEM 1000, Control -95.4

Compound: CNC(=N)c1ccc(OCCCCCOc2ccc(C(=N)NC)cc2)cc1 [RT-30]
- ΔG0 [1]: -37.2 kJ/mol
- δ(ΔG^0) PMD [1]: 5.3 kJ/mol
- Ki ([1]; Ki): 0.3 ± 0.07 µM
- EC50 [2]: 0.59 µM
- EC50 [3]: 0.8 µM

Compound: carbonyl cyanide m-chlorophenyl hydrazone [CCCP]
- Effect of ionophore on pentamidine uptake [4, 8]: strongly inhibited
- Inhibition of pentamidine transport ([4]; 1 µM): ~ 63%
- Inhibition of pentamidine transport ([4]; 5 µM): ~ 90%
- pentamidine uptake ([4]; CCCP 0.25, AVG): 106.6 percentage of the uninhibited control
- pentamidine uptake ([4]; CCCP 0.25, single repeats): 101 percentage of the uninhibited control and 112.1 percentage of the uninhibited control
- pentamidine uptake ([4]; CCCP 1, AVG): 36.9 percentage of the uninhibited control
- pentamidine uptake ([4]; CCCP 1, single repeats): 34.6 percentage of the uninhibited control and 39.1 percentage of the uninhibited control
- pentamidine uptake ([4]; CCCP 5, AVG): 10.3 percentage of the uninhibited control
- pentamidine uptake ([4]; CCCP 10, AVG): 4.3 percentage of the uninhibited control
- 3H-penta ([4]; Control = 100): 4.97*
- pentamidine uptake ([4]; CCCP 20, AVG): 5.0 percentage of the uninhibited control
- 3H-penta, outlier ([4]; CCCP 20, repeated in the column outlier, Control = 100): 4.97
- Inhibition of [3H]-suramin uptake (endocytosis) ([5]; 20 µM CCCP, pre-incubation 3 min, suramin accumulation over 10 min): 32.6%
- suramin accumulated, % of no CCCP control ([5]; +CCCP, 10 minutes): 67.3935 % of no CCCP control
- pmol suramin accumulated in 10 minutes (Average) ([5]; +CCCP, Average of experiments): 0.5894 pmol
- pmol suramin accumulated in 10 minutes (AVG pmol) ([5]; +CCCP, single experiments): 0.4589 pmol and 0.5929 pmol and 0.7163 pmol
- PMF [6, 9]: -45.6

Compound: N=C(N)c1ccc(-c2ccc(-c3ccc(C(=N)N)cc3)o2)cc1 [DB75]
- ΔG0 [1]: -25.2 kJ/mol
- δ(ΔG^0) PMD [1]: 17.3 kJ/mol
- Ki ([1]; HAPT Ki AVG): 38.3 µM
- Ki ([1]; Ki): 38.2 ± 10.2 µM
- EC50 [2]: 0.05 µM
- EC50 [3]: 0.02 µM

Compound: Cc1ccc(C(=O)Nc2ccc(S(=O)(=O)O)c3cc(S(=O)(=O)O)cc(S(=O)(=O)O)c23)cc1NC(=O)c1cccc(NC(=O)Nc2cccc(C(=O)Nc3cc(C(=O)Nc4ccc(S(=O)(=O)O)c5cc(S(=O)(=O)O)cc(S(=O)(=O)O)c45)ccc3C)c2)c1 [Suramin]
- suramin uptake rate, CRK+tet ([7]; AVERAGE of the experiments): 0.000346 pmol/1E7 cells/s-1
- suramin uptake rate, CRK+tet ([7]; single experiments): 0.0003125 pmol/1E7 cells/s-1 and 0.0002775 pmol/1E7 cells/s-1 and 0.0003952 pmol/1E7 cells/s-1 and 0.0004343 pmol/1E7 cells/s-1
- suramin uptake rate, CRK-tet ([7]; AVERAGE of the experiments): 0.000523 pmol/1E7 cells/s-1
- suramin uptake rate, CRK-tet ([7]; single experiments): 0.0004923 pmol/1E7 cells/s-1 and 0.0003572 pmol/1E7 cells/s-1 and 0.000635 pmol/1E7 cells/s-1 and 0.0006387 pmol/1E7 cells/s-1
- Reduction of [3H]-suramin uptake ([7]; twelve hours after CRK12 RNAi induction): 33%

Compound: Cl.Cl.N=C(N)c1ccc(OCCOc2ccc(C(=N)N)cc2)cc1.O.O (hydrate or solvate) [Ethamidine, 4,4'-(ethane-1,2-diylbis(oxy))dibenzimidamide dihydrochloride dihydrate]
- melting point: 333 °C

Compound: N=C(N)c1ccc(OCCCCCOc2ccc(C(=N)N)cc2Cl)c(Cl)c1 [RT-43]
- ΔG0 [1]: -35.9 kJ/mol
- δ(ΔG0) [1]: 6.64 kJ/mol
- δ(ΔG^0) PMD [1]: 6.6 kJ/mol
- Ki ([1]; Ki): 0.51 ± 0.15 µM
- EC50 [2]: 0.18 µM
- EC50 [3]: 0.235 µM

Compound: c1cc(C2=NCCN2)ccc1OCCCCCOc1ccc(C2=NCCN2)cc1 [RT-32]
- ΔG0 [1]: -36.5 kJ/mol
- δ(ΔG^0) PMD [1]: 6.0 kJ/mol
- Ki ([1]; Ki): 0.4 ± 0.08 µM
- EC50 [2]: 0.4 µM
- EC50 [3]: 0.5 µM

Compound: CCN1C(=O)C=CC1=O [NEM, N-ethylmaleimide]
- pentamidine uptake ([4]; NEM 1000, AVG): 60.1 percentage of the uninhibited control
- pentamidine uptake ([4]; NEM 1000, single repeats): 56.77 percentage of the uninhibited control and 56.26 percentage of the uninhibited control and 67.13 percentage of the uninhibited control
- PMF [6]: -39.3

Compound: Cl.N=C(N)c1ccc(OCCCCOc2ccccc2)cc1.O (hydrate or solvate) [CHI/1/69/1, 4-(4-Phenoxybutoxy)benzimidamide hydrochloride hydrate]
- melting point: 134 to 135 °C

Compound: gramicidin
- Effect of ionophore on pentamidine uptake [4, 8]: strongly inhibited
- 3H-penta ([4]; Control = 100): 5.87
- pentamidine uptake ([4]; Gramicidin 1, AVG): 23.3 percentage of the uninhibited control
- pentamidine uptake ([4]; Gramicidin 5, AVG): 3.7 percentage of the uninhibited control
- pentamidine uptake ([4]; Gramicidin 10, AVG): 5.9 percentage of the uninhibited control
- PMF [6, 9]: -13.1

Compound: N=C(N)c1ccc(OCCCCCOc2ccc(N)cc2)cc1 [RT-36]
- ΔG0 [1]: -36.3 kJ/mol
- δ(ΔG^0) PMD [1]: 6.2 kJ/mol
- Ki ([1]; Ki): 0.43 ± 0.07 µM
- EC50 [2]: 25.7 µM
- EC50 [3]: 23 µM

Compound: N=C(N)c1ccc(SCCCCCSc2ccc(C(=N)N)cc2)cc1 [RT-48]
- ΔG0 [1]: -32.5 kJ/mol
- δ(ΔG^0) PMD [1]: 10.0 kJ/mol
- Ki ([1]; Ki): 2.01 ± 0.86 µM
- EC50 [2]: 0.024 µM
- EC50 [3]: 0.165 µM

Compound: Cl.Cl.c1cc(-c2ccc(-c3ccc(CCC4=NCCN4)cc3)s2)ccc1CCC1=NCCN1 [DB1064, 2,5-bis(4-(2-(4,5-dihydro-1H-imidazol-2-yl)ethyl)phenyl) thiophene dihydrochloride]
- ΔG0 [1]: -31.5 kJ/mol
- δ(ΔG^0) PMD [1]: 11.0 kJ/mol
- Ki ([1]; Ki): 3 ± 0.82 µM
- melting point: > 225 °C (dec.)

Compound: COc1ccc(-c2ccc(-c3ccc(C(=N)N)cc3)o2)cc1 (as salt: hydrochloride) [DB607, 4-(5-(4-methoxyphenyl)furan-2-yl) benzimidamide hydrochloride]
- melting point: 250 to 252 °C (dec.)

Compound: CO[C@@H]1C[C@@H](C[C@H]2CC[C@H](C)[C@H]([C@@H](C)C(=O)O)O2)O[C@]2(O[C@](C)([C@H]3CC[C@@](C)([C@@H]4O[C@@H]([C@H]5O[C@@](O)(CO)[C@H](C)C[C@@H]5C)C[C@@H]4C)O3)C[C@H]2C)[C@@H]1C [nigericin]
- Effect of ionophore on pentamidine uptake [4]: strongly inhibited
- 3H-penta ([4]; Control = 100): 44.45
- pentamidine uptake ([4]; Nigericin 1, AVG): 109.4 percentage of the uninhibited control
- pentamidine uptake ([4]; Nigericin 1, single repeats): 108 percentage of the uninhibited control and 110.7 percentage of the uninhibited control
- pentamidine uptake ([4]; Nigericin 5, AVG): 76.8 percentage of the uninhibited control
- pentamidine uptake ([4]; Nigericin 10, AVG): 61.2 percentage of the uninhibited control
- pentamidine uptake ([4]; Nigericin 10, single repeats): 63.9 percentage of the uninhibited control and 61 percentage of the uninhibited control and 53.2 percentage of the uninhibited control and 66.7 percentage of the uninhibited control
- pentamidine uptake ([4]; Nigericin 20, AVG): 44.5 percentage of the uninhibited control
- pentamidine uptake ([4]; Nigericin 20, single repeats): 41.7 percentage of the uninhibited control and 44.5 percentage of the uninhibited control and 42.9 percentage of the uninhibited control and 48.7 percentage of the uninhibited control
- PMF [6]: -46.9

Compound: N=C(N)c1ccc(-c2ccc(-c3ccc(C(=N)N)cc3)[se]2)cc1 [DB1213]
- ΔG0 [1]: -35.1 kJ/mol
- δ(ΔG^0) PMD [1]: 7.5 kJ/mol
- Ki ([1]; Ki): 0.72 ± 0.17 µM
- EC50 [2]: 0.142 µM
- EC50 [3]: 0.078 µM

Compound: Cc1ccc(OCCCCCOc2ccc(C(=N)N)cc2)cc1 [CHI/1/72/1, 4-(5-(p-tolyloxy)pentyyloxy)benzimidamide hydrochloride hydrate]
- ΔG0 [1]: -31.9 kJ/mol
- δ(ΔG^0) PMD [1]: 10.7 kJ/mol
- Ki ([1]; HAPT Ki AVG): 2.6 µM
- Ki ([1]; HAPT Ki, AVG): 2.62 µM
- EC50 [2]: 3.23 µM
- EC50 [3]: 2.64 µM

Compound: N=C(N)c1ccc(OCCCCCOc2ccc(C(=N)N)cn2)nc1 [RT-52]
- ΔG0 [1]: -28.8 kJ/mol
- δ(ΔG^0) PMD [1]: 13.7 kJ/mol
- Ki ([1]; Ki): 8.84 ± 0.88 µM
- EC50 [2]: 0.0088 µM
- EC50 [3]: 0.051 µM

Compound: N=C(N)c1ccc(NCCCCCNc2ccc(C(=N)N)cc2)cc1 [RT-50]
- ΔG0 [1]: -29.7 kJ/mol
- δ(ΔG^0) PMD [1]: 12.9 kJ/mol
- Ki ([1]; Ki): 6.27 ± 1.3 µM
- EC50 [2]: 0.0041 µM
- EC50 [3]: 0.072 µM

Compound: Cn1c(-c2ccc(-c3ccc(C(=N)N)cc3)o2)nc2ccccc21 (as salt: hydrochloride) [DB960, 4-(5-(1-methyl-1H-benzo[d]imidazol-2-yl)furan-2-yl) benzimidamide dihydrochloride]
- melting point: > 290 °C (dec.)
